The text below walks through data of ChEMBL document CHEMBL1149966 (Bioorg Med Chem Lett, 1997).

“And” between values parts separate entries of the source, which are not always exact repeats. Equal values may be shown once.

Data set [1] deals with Rattus norvegicus. The data set is described as follows: Terminal phase half-life was evaluated in vivo in rat at a dose of 5 mg/kg by intra venous administration. It counts as ADME, organism-based. Details: dose 5 mg/kg. The following applies: iv.
The test system of data set [2] is Human immunodeficiency virus 1. The data set is described as follows: The activity against HIV multiply mutated strain M36M/I,V82V/A was determined from patient number 304. The format is functional, organism-based.
The subject of data set [3] is Human immunodeficiency virus 1. The data set is described as follows: The activity against HIV mutant strain V82A was determined from patient number 302. The format is functional, organism-based.
Data set [4] deals with Human immunodeficiency virus 1. Put plainly: The activity against HIV mutant strain V82F was determined from patient number 313. It counts as functional, organism-based.
The subject of data set [5] is Human immunodeficiency virus 1. Put plainly: The activity against HIV mutant strain V82S was determined from patient number 337. It counts as functional, organism-based.
The subject of data set [6] is Human immunodeficiency virus 1. The data set is described as follows: The activity against HIV was determined from patient number 129. The format is functional, organism-based.
For data set [7], the system named is Human immunodeficiency virus 1. Put plainly: The activity against HIV was determined from patient number 302. It counts as functional, organism-based.
Data set [8] has as its system Human immunodeficiency virus 1. Put plainly: The activity against mutant HIV molecular clone wt (pNL4-3) was determined. It counts as functional, organism-based.
Data set [9] deals with Human immunodeficiency virus 1. Put plainly: The activity against HIV was determined from patient number 304. It counts as functional, organism-based.
Data set [10] relates to Human immunodeficiency virus 1. The data set is described as follows: The activity against HIV was determined from patient number 313. It counts as functional, organism-based.
In data set [11] the test system is Human immunodeficiency virus 1. The data set is described as follows: The activity against HIV was determined from patient number 337. It counts as functional, organism-based.
Data set [12] concerns Human immunodeficiency virus 1. The data set is described as follows: The activity against mutant HIV molecular clone V82A was determined. The format is functional, organism-based.
Data set [13] deals with Human immunodeficiency virus 1. Put plainly: The activity against mutant HIV molecular clone V82F was determined. It counts as functional, organism-based.
The test system of data set [14] is Human immunodeficiency virus 1. The data set is described as follows: The activity against mutant HIV molecular clone V82T was determined. It counts as functional, organism-based.
Data set [15] has as its system MT4. Put plainly: Inhibitory potency towards recombinant HIV-1 3B in MT-4 cell was evaluated in 0% human plasma. The format is functional, cell-based.
The test system of data set [16] is MT4. The data set is described as follows: Inhibitory potency towards recombinant HIV-1 3B in MT-4 cell was evaluated in 50% human plasma. The format is functional, cell-based.
Data set [17] relates to MT4. The data set is described as follows: Inhibitory potency towards recombinant HIV-1 3B in MT-4 cell using cytopathic effect as endpoint was evaluated in 0% human plasma. It counts as functional.
For data set [18], the system named is Rattus norvegicus. Put plainly: Maximum plasma concentration was evaluated in vivo in rat at a dose of 5 mg/kg by oral administration. It counts as ADME, organism-based. The arrangement: dose 5 mg/kg, route oral.
The subject of data set [19] is Rattus norvegicus. The data set is described as follows: Oral bioavailability in rat (dose 5 mg/kg). As to conditions: in vivo. The format is ADME, organism-based.
Data set [20] concerns Human immunodeficiency virus 1. The data set is described as follows: The activity against multiply mutated strain M36I,I54V,A71V,V82T was determined from patient number 129. The format is functional, organism-based.

As to `CC(C)c1nc(CN(C)C(=O)N[C@@H](C(=O)N[C@@H](Cc2ccccc2)C[C@H](O)[C@H](Cc2ccccc2)NC(=O)OCc2cncs2)C(C)C)cs1`, in the data set on Rattus norvegicus [1], the T1/2 is 1.8 h and 1.41 h and 0.63 h. Besides, the concentration for a half-maximal effect (EC50) (usually the concentration that produces a half-maximal response) in [2] was 59 nM; in [3], 43 nM; in data set [4], 43 nM; in [5], 22 nM; in [6], 5 nM; in data set [7], 46 nM. Also, the concentration for a half-maximal effect (EC50) in data set [8] is 137 nM; in data set [9], 35 nM; in data set [10], 35 nM; in [11], 19 nM; in [12], 121 nM; in data set [13] it was 276 nM. The concentration giving a half-maximal response (EC50) in [14] amounted to 352 nM; in the data set with MT4 [15], 120 nM; in the data set on MT4 [16], 880 nM. The CCIC50 in the data set with MT4 [17] was 27 µM.
On to `CC(C)c1nc(CN(C)C(=O)N[C@H](C(=O)N[C@@H](Cc2ccccc2)C[C@H](O)[C@H](Cc2ccccc2)NC(=O)OCc2cncs2)C(C)C)cs1` [RITONAVIR], for which the Cmax (in general, the highest concentration seen after dosing) in the data set on Rattus norvegicus [18] is 1360 ng/mL and 3580 ng/mL. Besides, the F in the data set on Rattus norvegicus [19] was 70.7% and 37.4% and 29.9%. In addition, the concentration giving a half-maximal response (EC50) in data set [2] is 54 nM; in data set [3], 32 nM; in data set [4] it was 123 nM; in [5] it was 143 nM; in data set [6], 5 nM; in data set [8] it was 55 nM. Moreover, the half-maximal effective concentration (EC50) is 19 nM in data set [9]; 35 nM in data set [10]; 35 nM in data set [11]; 65 nM in [20]; 230 nM in data set [12]; 308 nM in data set [13]. Besides, the concentration giving a half-maximal response (EC50) is 316 nM in data set [14], 90 nM with MT4 [15] and 1070 nM in the data set on MT4 [16]. In addition, the CCIC50 in the data set with MT4 [17] was found to be 35 µM.
